Assay results from patent publication US11279733B2, “Peptide antibiotics” (priority 2017, dated 2022).
≈ marks a conversion by molar mass, not a printed value. Where two headings read alike, the source gives them in different places. Starred links: 1 amine or outer side, 2 acyl side, 3 side chain; linkers in the order of their positions; H or OH if unused. Positions of bridges follow the written chain, without caps; N, C: chain ends. Non-standard residues stand in square brackets, D forms with d. Residues, ends and D or L forms follow the SMILES beside them. *: point of attachment. Decanoyl(3R-OH) = CCCCCCC[C@@H](O)CC(=O)*; azaDab = NCCN(N[*:1])C(=O)[*:2]; dDab = NCC[C@@H](N)C(=O)O; dDap = NC[C@@H](N)C(=O)O; Dab = NCC[C@H](N)C(=O)O

Assays:
[1] = system: A. baumannii ATCC 19606; conditions: ATCC 19606
In short: (§1)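 Mid-log cultures grown in Mueller Hinton broth at 37° C were tested by 2-fold broth microdilution at 5×10^5 CFU/mL final. Compounds were dissolved in water and tested over a final range of 32 to 0.015 μg/mL.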

[2] = system: A. baumannii GN_093 PmxR; conditions: GN 093 PmxR
In short: as §1

[3] = system: E. coli ATCC 25922; conditions: ATCC 25922
In short: as §1

[4] = system: K. pneumoniae ATCC 13883; conditions: ATCC 13883
In short: as §1

[5] = system: K. pneumoniae ATCC 700603, MDR; conditions: ATCC 700603
In short: as §1

[6] = system: K. pneumoniae ATCC BAA-2146, NDM-1 pos; conditions: ATCC BAA-2146
In short: as §1

[7] = system: K. pneumoniae GN_102 PmxR; conditions: GN 102 PmxR
In short: as §1

[8] = system: K. pneumoniae GN_106, PmxR; conditions: GN 106, PmxR
In short: as §1

[9] = system: P. aeruginosa ATCC 27853; conditions: ATCC 27853
In short: as §1

[10] = system: P. aeruginosa GN_043, PmxR
In short: as §1

[11] = system: P. aeruginosa GN_105, PmxR; conditions: GN 105, PmxR
In short: as §1

[12] = system: S. aureus ATCC 25923, MSSA; conditions: ATCC 25923
In short: as §1

[13] = in vitro; conditions: human
In short: (§2)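 Viability is measured by resazurin reduction (5 μM, 2 h, 37 °C) after cells seeded at 4000 per well are treated with compound for 24 h.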

[14] = system: Neisseria gonorrhoeae; assay: MIC determination, Neisseria gonorrhoeae; type: cell-based; conditions: for MIC N. gonorrhoeae FA19 ATCC BAA-1838: strain FA19 ATCC BAA-1838
In short: as §1

[15] = In vitro nephrotoxicity, LDH release from primary human kidney cells; type: cell-based; conditions: pH 7.4
[16] = In vitro nephrotoxicity, GGT release from primary human kidney cells; type: cell-based; conditions: pH 7.4
In short: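 Primary proximal tubule cells from normal human renal cortex were collagenase-isolated and grown serum-free to 80–90% confluence. GGT release was measured on samples with 2.5 mM γ-glutamyl-p-nitroanilide plus glycylglycine in 50 mM Tris, pH 8.2. p-Nitroanilide formation was read at 410 nm.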

[17] = system: HEK293 cells; assay: in vitro; conditions: human, 24 h
In short: as §2

[18] = in vitro; conditions: human; remark: listed apart in the source
In short: as §2

[19] = system: HepG2 cells; assay: in vitro; conditions: human, 24 h
In short: as §2

| SMILES | MIC, A. baumannii ATCC 19606 [1] | MIC, E. coli ATCC 25922 [3] | MIC, K. pneumoniae ATCC 13883 [4] | MIC, K. pneumoniae ATCC 700603, MDR [5] | MIC, K. pneumoniae ATCC BAA-2146, NDM-1 pos [6] | MIC, P. aeruginosa ATCC 27853 [9] | CC50 at 24 h [13] | MIC N. gonorrhoeae FA19 ATCC BAA-1838 [14] | CC50 [15] | CC50 [16] | MIC A. baumannii ATCC 19606 [1] | MIC A. baumannii Cl Ptyela 10073 4512:2, PmxR [2] | MIC E. coli ATCC 25922 [3] | MIC K. pneumoniae ATCC 13883 [4] | MIC K. pneumoniae ATCC 700603, MDR [5] | MIC K. pneumoniae ATCC BAA-2146, NDM-1 pos [6] | MIC K. pneumoniae Cl Koprana 10065 0661:1 PmxR [7] | MIC K. pneumoniae Cl 183-16357-20352, PmxR [8] | MIC P. aeruginosa ATCC 27853 [9] | MIC, P. aeruginosa FADDI-PA070, PmxR ([10]; strain name as in Table 11) | further results |
| --- | --- | --- | --- | --- | --- | --- | --- | --- | --- | --- | --- | --- | --- | --- | --- | --- | --- | --- | --- | --- | --- |
| CCCCCCC[C@@H](O)CC(=O)N[C@H](CN)C(=O)N[C@H]1CCNC(=O)[C@H](CC(C)C)NC(=O)[C@H](CCN)NC(=O)[C@H](CCN)NC(=O)[C@H](CC(C)C)NC(=O)[C@@H](Cc2ccccc2)NC(=O)[C@H](CCN)NC1=O [compound 6442, 3(R)OH-nC9CO-D-Dap-cyc[L-Dab-L-Dab-D-Phe-L-Leu-L-Dab-L-Dab-L-Leu]] ({Decanoyl(3R-OH)}-[dDap][Dab][Dab][dF]L[Dab][Dab]L; lactam 2-C) | 4 µg/mL (≈ 3.88 µM) | 2 µg/mL (≈ 1.94 µM) | 4 µg/mL (≈ 3.88 µM) | 4 µg/mL (≈ 3.88 µM) | 8 µg/mL (≈ 7.76 µM) | 2 µg/mL (≈ 1.94 µM) | > 300 µM | 1.56 µg/mL (≈ 1.51 µM) | > 128 µg/mL | > 128 µg/mL | – | – | – | – | – | – | – | – | – | – | MIC A. baumannii GN_093 PmxR [2]: 4 µg/mL (≈ 3.88 µM); MIC K. pneumoniae GN_102 PmxR [7]: 2 µg/mL (≈ 1.94 µM); MIC K. pneumoniae GN_106, PmxR [8]: 4 µg/mL (≈ 3.88 µM); MIC P. aeruginosa GN_043, PmxR ([10]; Table 6, polymyxin-resistant): 2 µg/mL (≈ 1.94 µM); MIC P. aeruginosa GN_105, PmxR [11]: 2 µg/mL (≈ 1.94 µM); MIC, S. aureus ATCC 25923, MSSA [12]: 16 µg/mL (≈ 15.5 µM); MIC N. gonorrhoeae F89 ([14]; strain F89): 1.56 µg/mL (≈ 1.51 µM); MIC N. gonorrhoeae FA1090 A25 ATCC 700825 ([14]; strain FA1090 A25 ATCC 700825): 1.3 µg/mL (≈ 1.26 µM); MIC N. gonorrhoeae H041 ([14]; strain H041): 1.56 µg/mL (≈ 1.51 µM) |
| CCCCCCC[C@@H](O)CC(=O)NN(CCN)C(=O)N[C@H]1CCNC(=O)[C@H](CC(C)C)NC(=O)[C@H](CCN)NC(=O)[C@H](CCN)NC(=O)[C@H](CC(C)C)NC(=O)[C@@H](Cc2ccccc2)NC(=O)[C@H](CCN)NC1=O [compound 8639, 3(R)OH-nC9CO-azaDab-cyc[L-Dab-L-DAB-D-Phe-L-Leu-L-Dab-L-Dab-L-Leu]] ({Decanoyl(3R-OH)}-[azaDab][Dab][Dab][dF]L[Dab][Dab]L; lactam 2-C) | – | – | – | – | – | – | – | 0.78 µg/mL (≈ 0.746 µM) | > 128 µg/mL | > 128 µg/mL | 4 µg/mL (≈ 3.83 µM) | 8 µg/mL (≈ 7.65 µM) | 2 µg/mL (≈ 1.91 µM) | 4 µg/mL (≈ 3.83 µM) | 2 µg/mL (≈ 1.91 µM) | 4 µg/mL (≈ 3.83 µM) | 2 µg/mL (≈ 1.91 µM) | 2 µg/mL (≈ 1.91 µM) | 2 µg/mL (≈ 1.91 µM) | 2 µg/mL (≈ 1.91 µM) | MIC P. aeruginosa PA9704, PmxR [11]: 2 µg/mL (≈ 1.91 µM); MIC S. aureus ATCC 25923, MSSA [12]: 8 µg/mL (≈ 7.65 µM) |
| CCCCCCC[C@@H](O)CC(=O)N[C@H](CCN)C(=O)N[C@H]1CCNC(=O)[C@H](CC(C)C)NC(=O)[C@H](CCN)NC(=O)N(CCN)NC(=O)[C@H](CC(C)C)NC(=O)[C@@H](Cc2ccccc2)NC(=O)[C@H](CCN)NC1=O [compound 8641, 3(R)OH-nC9CO-D-Dab-cyc[L-Dab-L-DAB-D-Phe-L-Leu-azaDab-L-Dab-L-Leu]] ({Decanoyl(3R-OH)}-[dDab][Dab][Dab][dF]L[azaDab][Dab]L; lactam 2-C) | – | – | – | – | – | – | > 300 µM | – | > 128 µg/mL | > 128 µg/mL | 8 µg/mL (≈ 7.65 µM) | 32 µg/mL (≈ 30.6 µM) | 4 µg/mL (≈ 3.83 µM) | 4 µg/mL (≈ 3.83 µM) | 4 µg/mL (≈ 3.83 µM) | 8 µg/mL (≈ 7.65 µM) | 2 µg/mL (≈ 1.91 µM) | 4 µg/mL (≈ 3.83 µM) | 2 µg/mL (≈ 1.91 µM) | 2 µg/mL (≈ 1.91 µM) | MIC P. aeruginosa PA9704, PmxR [11]: 2 µg/mL (≈ 1.91 µM); MIC S. aureus ATCC 25923, MSSA [12]: 32 µg/mL (≈ 30.6 µM); CC50 [17]: > 300 µM; CC50 at 24 h [18]: > 300 µM; CC50 [19]: > 300 µM |
| CCCCCCC[C@@H](O)CC(=O)N[C@H](CCN)C(=O)N[C@H]1CCNC(=O)[C@H](CC(C)C)NC(=O)[C@H](CCN)NC(=O)[C@H](CCCNC(=N)N)NC(=O)[C@H](CC(C)C)NC(=O)[C@@H](Cc2ccccc2)NC(=O)[C@H](CCN)NC1=O [compound 8733, 3(R)OH-nC9CO-D-Dab-cyc[L-Dab-L-DAB-D-Phe-L-Leu-L-Arg-L-Dab-L-Leu]] ({Decanoyl(3R-OH)}-[dDab][Dab][Dab][dF]LR[Dab]L; lactam 2-C) | 4 µg/mL (≈ 3.63 µM) | 2 µg/mL (≈ 1.82 µM) | 2 µg/mL (≈ 1.82 µM) | 2 µg/mL (≈ 1.82 µM) | 4 µg/mL (≈ 3.63 µM) | 2 µg/mL (≈ 1.82 µM) | – | 0.78 µg/mL (≈ 0.709 µM) | > 128 µg/mL | > 128 µg/mL | – | – | – | – | – | – | – | – | – | – | MIC, A. baumannii Cl Ptyela 10073 4512:2, PmxR [2]: 8 µg/mL (≈ 7.27 µM); MIC, K. pneumoniae Cl Koprana 10065 0661:1, PmxR [7]: 2 µg/mL (≈ 1.82 µM); MIC, K. pneumoniae Cl 138-16347-20362, PmxR [8]: 2 µg/mL (≈ 1.82 µM); MIC, P. aeruginosa FADDI-PA070, PmxR ([10]; Table 5, polymyxin-resistant): 2 µg/mL (≈ 1.82 µM); MIC, P. aeruginosa PA9704, PmxR [11]: 2 µg/mL (≈ 1.82 µM); MIC, S. Aureus ATCC 25923, MSSA [12]: 8 µg/mL (≈ 7.27 µM) |
